From patent US6458557B1, “Enhancing growth in gram-positive microorganisms using formate supplementation and inactivation of formate-associated transport proteins” (Genencor International, Inc., priority 1997, dated 2002) come the findings set out here.

For data set [1], the system named is Bacillus subtilis (BG125). Put plainly: Metabolic by-products (HPLC) and glucose in shake flask supernatants. It counts as cell-based. Particulars: flasks of FIG. 5: 3 g/l sodium formate, 80 mM MOPS; control about 1.5 g/L. How it is done: (§1) Prior to shake flask experiments BG125 was grown from frozen stocks onto LB agar and grown overnight at 37° C. Cells were removed from the plates to 6 mls of SBG1% in test-tubes and grown at 37° C. for three hours. 0.2 mls of the seed culture was used to inoculate a pre-warmed 300 ml nephlometer flask containing 20 mls of the appropriate media. Flasks were incubated at 37° C. (except where indicated) and 300 rpm in a New Brunswick Scientific Shaker. […] The sample was spun in an eppendorf microfuge and 1 ml of supernatant was removed and mixed with 30 μls of perchloric acid HPLC analysis. The remaining supernatant was saved for glucose analysis. All samples were stored at −70° C. until analysis. Medium pH titrations were performed by the stepwise addition of HCl followed by pH measurement. The bactericidal tests of pH and formate on B. subtilis were carried out by growing BG125 as described above in SBG1% to a density of 5×10^6 cfu/ml. The cells were then adjusted to a concentration of 5×10^4 cfu/ml with buffered SBG1% adjusted to the pH indicated, with and without 50 mM formate. Cultures were then incubated at 37° C. with shaking for 3 hours. Samples were taken at 0, 1 2 and 3 hours, serially diluted and plated to LB at 37° C. for determination of cell viability.

In data set [2] the test system is Bacillus subtilis (BG125). Put plainly: Shake flask growth of BG125 in 1% SBG (Klett reading and flask pH). It counts as cell-based. As to conditions: for growth in shake flask compared to other flasks: 1% SBG pH 7, 37° C., 3 g/l (44 mM) sodium formate and/or 80 mM MOPS (FIG. 5). How it is done: (§2) The Bacillus subtilis strain used was a derivative of I168 called BG125 (hisA1 thr5 trpC2) provided by J. A. Hoch. […] MM294 competent cells (Ausubel et al. 1992, Short Protocols in Molecular Biology. John Wiley and Sons, New York) were used for plasmid construction and propagation. LB broth and agar were used for growing MM294 cells and were supplemented with 50 ug/ml carbenicillin for selection. BG125 was grown on LB agar or in LB liquid medium supplemented with 10 μg/ml of kanamycin for selection.
Trimethaprim was dissolved in 50% ethanol and added to a final concentration of 50 ug/ml where indicated when the growth had reached a Klett reading between 20-30 units. The additions for trimethaprim experiments were added at the following final concentrations: 10 ug/ml glycine, 10 ug/ml methionine, 50 ug/ml thymidine, 20 ug/ml adenosine, and 20 ug/ml guanosine.
(§3) Prior to shake flask experiments BG125 was grown from frozen stocks onto LB agar and grown overnight at 37° C. Cells were removed from the plates to 6 mls of SBG1% in test-tubes and grown at 37° C. for three hours. 0.2 mls of the seed culture was used to inoculate a pre-warmed 300 ml nephlometer flask containing 20 mls of the appropriate media. Flasks were incubated at 37° C. (except where indicated) and 300 rpm in a New Brunswick Scientific Shaker. At the indicated time points, the amount of cell growth was determined by a Klett-Summerson Photoelectric Colorimeter, the pH of the flask was taken using a Corning pH/iometer, and 1.25 mls was removed for further processing. The sample was spun in an eppendorf microfuge and 1 ml of supernatant was removed and mixed with 30 μls of perchloric acid HPLC analysis. The remaining supernatant was saved for glucose analysis. All samples were stored at −70° C. until analysis. Medium pH titrations were performed by the stepwise addition of HCl followed by pH measurement. The bactericidal tests of pH and formate on B. subtilis were carried out by growing BG125 as described above in SBG1% to a density of 5×10^6 cfu/ml. The cells were then adjusted to a concentration of 5×10^4 cfu/ml with buffered SBG1% adjusted to the pH indicated, with and without 50 mM formate. Cultures were then incubated at 37° C. with shaking for 3 hours. Samples were taken at 0, 1 2 and 3 hours, serially diluted and plated to LB at 37° C. for determination of cell viability.

Data set [3] can be described thus: Medium pH titration by stepwise addition of HCl. Particulars: 1% SBG with 3 g/l sodium formate or 80 mM MOPS, HCl added (FIG. 6). The class given is physicochemical. Here is the method:
as §1

For data set [4], the system named is BG125 with yrhG (FTAP 1) gene interruption. The data set is described as follows: Shake flask growth of BG125 with interruption of yrhG (FTAP 1). Particulars: 1% SBG, 3 g/l formate. The class given is cell-based, Bacillus subtilis. From the text: (§4) The PCR product was digested with BamHI and PstI and ligated with the 5.3-Kb BamHI-PstI fragment from plasmid pUC/Ts/Kan to construct the yrhG-homologue interruption plasmid pTRANS1. […] The PCR product was digested with BamHI and PstI and ligated with the 5.3-Kb BamHI-PstI fragment from plasmid pUC/Ts/Kan to construct the ywcJ-homologue interruption plasmid. […] The sequencing primers used were the mp19/pUC19 24-mer reverse sequencing primer and the mp19/pUC19 24-mer sequencing primer from New England Biolabs.
(§5) Resulting kanamycin resistant transformants were grown overnight in LB liquid medium containing kanamycin at 45° C. Integrants were plated and then colony purified on LB plates containing kanamycin at 45° C. Isolated colonies were then frozen in LB liquid medium plus 30% glycerol at −70° C. for preservation.
(§6) Prior to shake flask experiments BG125 was grown from frozen stocks onto LB agar and grown overnight at 37° C. Cells were removed from the plates to 6 mls of SBG1% in test-tubes and grown at 37° C. for three hours. 0.2 mls of the seed culture was used to inoculate a pre-warmed 300 ml nephlometer flask containing 20 mls of the appropriate media. Flasks were incubated at 37° C. (except where indicated) and 300 rpm in a New Brunswick Scientific Shaker. […]

Data set [5] concerns BG125 with ywcJ (FTAP 2) gene interruption. Put plainly: Shake flask growth of BG125 with interruption of ywcJ (FTAP 2). It counts as cell-based, Bacillus subtilis. Particulars: 1% SBG, 3 g/l formate, ywcJ (FTAP 2) interruption (FIG. 17).
Text: as §4, §5, §6

The test system of data set [6] is Bacillus subtilis (BG125). Put plainly: Bactericidal tests of pH and formate (cell viability by plating). It counts as cell-based. Here is the method: as §2, §3

With `O=S(=O)(O)CCCN1CCOCC1` [MOPS, reference compound], in data set [1], the acetate level reached was ~2 g/L. For the same compound, the “growth in shake flask compared to other flasks” value in data set [2] was “near the levels of the formate containing flask”. Further, the “buffering activity in pH titration” value in data set [3] is given as “showed buffering activity in the expected range”.
As for `COc1cc(Cc2cnc(N)nc2N)cc(OC)c1OC` [trimethaprim, Trimethaprim, reference compound], in data set [2] (trimethaprim 50 ug/ml added at Klett 20-30, SBG1% (FIG. 11)), the “effect on growth compared to SBG1% alone” value was “inhibitory effect”.
In the case of `O=C[O-].[Na+]` [sodium formate, Sodium formate], the “decrease in the growth enhancement normally seen with exogenous formate” value in data set [4] (yrhG (FTAP1) interruption (FIG. 16)) is listed as ~50%. In addition, the “growth enhancement effect of formate in interrupted strain” value in data set [4] (yrhG interruption (FIG. 16)) is reported as “reduced the normal growth enhancement effect of formate by half”. The “effect of formate on growth of interrupted strain” value in data set [5] is given as “toxic effect which caused a decline of growth well below growth of the control strain with out formate”. The “growth in shake flask compared to other flasks” value in data set [2] is listed as “more total growth”. Besides, the “lag in the initial growth rate” value in data set [2] (3 g/l sodium formate, 1% SBG) is recorded as “slight lag”. Further, in data set [2] (flask containing trimethaprim and growth enhancing additives (FIG. 11)), the “rate of growth when formate was added” value is reported as “significantly reduced”. Also, the “duration of the initial lag period” value in data set [2] (higher concentrations of sodium formate, up to 21 g/l (FIG. 7)) is “correlation between increasing concentrations of formate and the duration of the initial lag period”. For the same compound, the “culture density reached after the lag period” value in data set [2] (sodium formate up to 21 g/l (FIG. 7), versus control flask) is listed as “reached higher densities than the control flask”. The loss of viability result in data set [6] (pH 3.6, 50 mM formate, also without formate) was “lost complete viability within two hours”. Moreover, in data set [6] (pH 3.6, one hour, 50 mM formate, 1.8 % without formate), the “percent of survivors based on the initial titer” value was 0.13%. This compound yielded a percent survivors in data set [6] (pH 4.0, 3 hours, 50 mM formate, 38 % without formate) of 1.2%. For the same compound, the viability result was “no decline in viability” in data set [6] (pH 4.6, 50 mM formate) and “no decline of viability” in data set [6] (pH 7.0, 50 mM formate). Also, the “buffering activity in pH titration” value in data set [3] is “little buffering activity down to pH 5.0”.
